Test results taken from patent publication US20100120810A1, “COMPOUNDS AND METHODS FOR MODULATING RHO GTPASES” (priority 2007, published 2010).
Where a name gives a salt, the structure may show the parent alone. Read-outs that look alike come from different tables or passages of the source.

Experiments:
Assay type in all cases: biochemical
[1] = target: T1, Rac1 activated by DH/PH domain of Guanine nucleotide Exchange Factor Tiam1 (Rac1/Tiam1) (Homo sapiens, UniProt P63000); assay: Nucleotide binding assay: BODIPY-GTP binding to Rac1 activated by Tiam1 DH/PH; conditions: for inhibition at 50 µM: read-out: Rac1 % inhibition of BODIPY-GTP binding
T1 construct: made in house; host or cells: E. coli BL21 Codon+RIL
Description: (§1) Fluorescence of GTP analog BODIPY-GTP increases when it binds to small G proteins. This property was used to assess ability of compounds to inhibit nucleotide binding to Rac1, Rac1b and Cdc42. 2 μM GST-Rac1 and 6 μg His6-Tiam1-DH/PH were diluted in a buffer containing 20 mM Tris, 50 mM NaCl, and 1 mM MgCl2. This mixture was loaded in a 96-well plate. Fluorescence recording were started (λEx: 485 nm; λEm: 538 nm) using a spectrofluorimeter (Fluoroskan; Thermolab Systems). Assay was initiated by the addition of 2 μM BODIPY-GTP with or without various doses of test compound. Fluorescence values were recorded, and data were processed as follows: background fluorescence (unbound BODIPY-GTP) was retrieved from fluorescence values.
(§2) This assay allows determining whether compounds can inhibit the binding of a fluorescent nucleotide to recombinant small G proteins of interest. The effect of various alkaloid compounds on binding of BODIPY-GTP to Rac1 activated by DH/PH domain of Guanine nucleotide Exchange Factor Tiam1 (Rac1/Tiam1), Rac1b and Cdc42 is described below.

Rac1b = target: T2, Rac1b (Homo sapiens, UniProt P63000); assay: Nucleotide binding assay: BODIPY-GTP binding to Rac1b; conditions: for inhibition at 50 µM: read-out: Rac1b % inhibition of BODIPY-GTP binding
T2 construct: GST (N); made in house; host or cells: E. coli BL21 Codon+RIL
Description: as §1, §2

Cdc42 = target: T3, Cdc42 (Homo sapiens, UniProt P60953); assay: Nucleotide binding assay: BODIPY-GTP binding to Cdc42; conditions: read-out: Cdc42 % inhibition of BODIPY-GTP binding
T3 construct: GST (N); made in house; host or cells: E. coli BL21 Codon+RIL
T3 sequence (P60953 whole entry, species assumed): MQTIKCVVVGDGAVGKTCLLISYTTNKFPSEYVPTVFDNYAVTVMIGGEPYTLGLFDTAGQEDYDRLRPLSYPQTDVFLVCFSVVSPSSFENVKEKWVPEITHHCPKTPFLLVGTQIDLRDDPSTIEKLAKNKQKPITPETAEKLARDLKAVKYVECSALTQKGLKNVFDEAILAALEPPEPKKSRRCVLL
Description: as §1, §2

[2] = final concentration of 50 μM, Rac1/Tiam1
[3] = dose-response study (1-2-5-10-25-50-75-100 μM)

Structure (SMILES)	inhibition at 50 µM (Cdc42; final concentration of 50 μM) [%]	inhibition at 50 µM [1, 2] [%]	inhibition at 50 µM (Rac1b; final concentration of 50 μM) [%]	other results
COc1ccc2c(c1OC)CN1CCc3cc4c(cc3C1C2)OCO4 (racemic) [Compound 3, (±)-Canadine hydrochloride]				inhibition at 50 µM [1]: 1 ± 3%; inhibition at 50 µM (Rac1b): -7 ± 4%
COc1ccc2c(c1OC)CN1CCc3cc(O)c(O)cc3C1C2 (racemic) [Compound 17, (±)-9,10-Dimethoxy-5,8,13,13a-tetrahydro-6H-isoquino[3,2-a]isoquinoline-2,3-diol hydrochloride]				inhibition at 50 µM (Cdc42): -13 ± 12%; inhibition at 50 µM [1]: 5 ± 3%; inhibition at 50 µM (Rac1b): -7 ± 4%
Oc1cc2c(cc1O)-c1cc3ccc(O)c(O)c3c[n+]1CC2 [Compound 6, 5,6-dihydro-isoquino[3,2-a]isoquinolinylium-2,3,9,10-tetraol chloride]	100			
COc1cc2cc3c4cc(OC)c(OC)cc4cc[n+]3c(C)c2cc1OC [Compound 8, 8-methyl-2,3,10,11-tetramethoxydibenzo[a,g]quinolizinium chloride, hydrate, reference compound]				inhibition at 50 µM (Cdc42): 21 ± 2%; inhibition at 50 µM [1]: 36 ± 4%; inhibition at 50 µM (Rac1b): 44 ± 4%
COc1ccc(Cc2nccc3cc(OC)c(OC)cc23)cc1OC [Compound 9, 1-(3,4-dimethoxybenzyl)-6,7-dimethoxyisoquinoline hydrochloride, reference compound]				inhibition at 50 µM (Cdc42): 2 ± 2%; inhibition at 50 µM [1]: 1 ± 2%; inhibition at 50 µM (Rac1b): 5 ± 2%
Cc1c2cc(O)c(O)cc2cc2c3cc(O)c(O)cc3cc[n+]12 [Compound 15, 8-Methyl-isoquino[3,2-a]isoquinolinylium-2,3,10,11-tetraol chloride]	70 ± 3	63 ± 4	72 ± 4	IC50 (Rac1b; dose-response study): 13.2 ± 4.3 µM
COc1cc2cc(-c3cccc([N+](=O)[O-])c3)nc(C)c2cc1OC [Compound 23, 6,7-Dimethoxy-1-methyl-3-(3-nitrophenyl)isoquinolinium chloride]	14 ± 3	3 ± 4	10 ± 4	
COc1cc2cc(-c3ccc(O)c(O)c3)[n+](C)c(C)c2cc1OC [Compound 27, 3-(3,4-Dihydroxyphenyl)-6,7-dimethoxy-1,2-dimethylisoquinolinium chloride]	5 ± 2	6 ± 2	17 ± 1	
COc1cc2cc(-c3cccc(NC(C)=O)c3)nc(C)c2cc1OC [Compound 31, N-(3-(6,7-Dimethoxy-1-methylisoquinolin-3-yl)phenyl)acetamide hydrochloride]	10 ± 1	-1 ± 2	10 ± 3	
COc1cc2cc(-c3ccc(C(=O)OC(C)C)cc3)nc(C)c2cc1OC [Compound 32, Isopropyl 4-(6,7-dimethoxy-1-methylisoquinolin-3-yl)benzoate hydrochloride]	2 ± 1	4 ± 5	10 ± 4	
COc1cc2cc(-c3cccnc3)nc(C)c2cc1OC [Compound 36, 6,7-Dimethoxy-1-methyl-3-(pyridin-3-yl)isoquinoline dihydrochloride]	-4 ± 13	10 ± 3	12 ± 3	
COc1cc2cc(-c3ccccc3N)nc(C)c2cc1OC [Compound 37, 2-(6,7-Dimethoxy-1-methylisoquinolin-3-yl)aniline dihydrochloride]	1 ± 13	10 ± 1	14 ± 2	
COc1cc2cc(-c3ccccc3NC(C)=O)nc(C)c2cc1OC [Compound 38, N-(2-(6,7-Dimethoxy-1-methylisoquinolin-3-yl)phenyl)acetamide]	3 ± 7	1 ± 3	0	
COc1cc2cc(-c3ccc(Cl)c(Cl)c3)nc(C)c2cc1OC [Compound 39, 3-(3,4-Dichlorophenyl)-6,7-dimethoxy-1-methylisoquinolinylium chloride]	5 ± 1	17 ± 7	42 ± 7	

More lines, main results first:

inhibition at 50 µM (Cdc42; final concentration of 50 μM) [%]	inhibition at 50 µM [1, 2] [%]	inhibition at 50 µM (Rac1b; final concentration of 50 μM) [%]	Structure (SMILES)	other results
3 ± 1	9 ± 2	16 ± 2	COc1ccc2c(c1OC)C[N+]1(Cc3ccccc3)CCc3cc4c(cc3C1C2)OCO4 (racemic) [Compound 5, (±)-7-benzyl-9,10-dimethoxy-5,8,13,13a-tetrahydro-6H-[1,3]dioxolo[4,5-g]isoquino[3,2-a]isoquinolinylium bromide]	
9 ± 2	23 ± 3	31 ± 4	COc1ccc2c(c1OC)C(Cc1ccccc1)N1CCc3cc4c(cc3C1C2)OCO4 (racemic) [Compound 12, (±)-8-Benzyl-9,10-dimethoxy-5,8,13,13a-tetrahydro-6H-[1,3]dioxolo[4,5-g]isoquino[3,2-a]isoquinoline hydrochloride]	
8 ± 3	4 ± 4	-6 ± 10	CCc1cc2c(cc1C1Cc3ccc(OC)c(OC)c3CN1C)OCO2 (racemic) [Compound 20, (±)-3-(6-Ethylbenzo[d][1,3]dioxol-5-yl)-7,8-dimethoxy-2-methyl-1,2,3,4-tetrahydroisoquinolinylium chloride]	
8 ± 2	15 ± 2	23 ± 2	COc1ccc2cc3[n+](cc2c1OC)CCc1cc2c(cc1-3)OCO2 [Compound 1, Berberine chloride, reference compound]	maximum inhibition on Rac1/Tiam1 [1, 3]: 19±1%; maximum inhibition on Rac1b (Rac1b; [3]): 29±1%
11 ± 2			COc1cc2c(cc1OC)-c1cc3ccc(OC)c(OC)c3c[n+]1CC2 [Compound 2, palmatine chloride, hydrate, reference compound]	inhibition at 50 µM [1]: 15 ± 2%; inhibition at 50 µM (Rac1b): 19 ± 3%
-1 ± 1	0	6 ± 3	COc1cc2c(cc1OC)CN(Cc1cccc(OC)c1OC)CC2 [Compound 7, 2-(2,3-Dimethoxybenzyl)-6,7-dimethoxy-1,2,3,4-tetrahydroisoquinoline hydrochloride]	
17	18 ± 2	27 ± 2	COc1ccc2c(c1OC)C(c1ccccc1)N1CCc3cc4c(cc3C1=C2)OCO4 (stereo not drawn) [Compound 10, 9,10-dimethoxy-8-phenyl-5,8-dihydro-2H-6H-[1,3]dioxolo[4,5-g]isoquino[3,2-a]isoquinoline]	
1 ± 1	-1 ± 2	-2 ± 3	COc1ccc2c(c1OC)C(Cc1ccccc1)N1CCc3cc4c(cc3C1=C2)OCO4 (stereo not drawn) [Compound 11, 8-benzyl-9,10-dimethoxy-5,8-dihydro-2H-6H-[1,3]dioxolo[4,5-g]isoquino[3,2-a]isoquinoline]	
-8 ± 10	1 ± 2	4 ± 3	COc1cc2c(cc1OC)CN(Cc1cccc(O)c1O)CC2 [Compound 18, 2-(2,3-Dihydroxybenzyl)-6,7-dimethoxy-1,2,3,4-tetrahydroisoquinolinium chloride]	
18 ± 2	13 ± 2	12 ± 2	COc1cc2cc(-c3ccc4c(c3)OCO4)nc(C)c2cc1OC [Compound 21, 3-(Benzo[d][1,3]dioxol-5-yl)-6,7-dimethoxy-1-methylisoquinoline hydrochloride]	
14 ± 3	12 ± 2	18 ± 2	COc1cc2cc(-c3ccc4c(c3)OCO4)[n+](C)c(C)c2cc1OC [Compound 22, 3-(Benzo[d][1,3]dioxol-5-yl)-6,7-dimethoxy-1,2-dimethylisoquinolinium chloride]	
7 ± 1	20 ± 3	29 ± 3	COc1cc2cc(-c3cccc(C(C)=O)c3)[n+](C)c(C)c2cc1OC [Compound 25, 3-(3-Acetylphenyl)-6,7-dimethoxy-1,2-dimethylisoquinolinium chloride]	
2 ± 4	-5 ± 2	-2 ± 2	COc1cc2cc(-c3cccc(N(S(C)(=O)=O)S(C)(=O)=O)c3)nc(C)c2cc1OC [Compound 29, N-(3-(6,7-Dimethoxy-1-methylisoquinolin-3-yl)phenyl)-N-(methylsulfonyl)methanesulfonamide hydrochloride]	
3 ± 5	-2 ± 3	3 ± 3	CNC(=O)c1ccc(-c2cc3cc(OC)c(OC)cc3c(C)n2)cc1 [Compound 34, 4-(6,7-Dimethoxy-1-methylisoquinolin-3-yl)-N-methylbenzamide]	
11 ± 2	6 ± 4	6 ± 2	COc1ccc(-c2cc3cc(OC)c(OC)cc3c(C)n2)cn1 [Compound 35, 6,7-Dimethoxy-3-(6-methoxypyridin-3-yl)-1-methylisoquinoline dimethanesulfonate]	
